Test results as given in patent publication US20250313556A1, “CERTAIN CHEMICAL ENTITIES, COMPOSITIONS, AND METHODS” (MRJA THERAPEUTICS, INC., priority 2022, published 2025).

Molecular target: c-KIT (Homo sapiens, UniProt P10721)
Assay: c-KIT ADP-Glo biochemical assay
Conditions: class ranges
Description: The inhibitory activity against c-KIT was measured using ADP-Glo assay. The percent (%) inhibition at each concentration of compound is calculated based on and relative to the luminescence signal in the Max and Min control wells contained within each assay plate. The Max control wells contain enzyme and substrate as 0% inhibition, and the Min control wells only contain substrate without enzyme as 100% inhibition. The concentrations and % inhibition values for tested compounds are plotted and the concentration of compound required for 50% inhibition (IC50) is determined with a four-parameter logistic dose response equation. The ability of the compounds in Table 1 to inhibit c-KIT was determined.

Chain of c-KIT (P10721 26-976): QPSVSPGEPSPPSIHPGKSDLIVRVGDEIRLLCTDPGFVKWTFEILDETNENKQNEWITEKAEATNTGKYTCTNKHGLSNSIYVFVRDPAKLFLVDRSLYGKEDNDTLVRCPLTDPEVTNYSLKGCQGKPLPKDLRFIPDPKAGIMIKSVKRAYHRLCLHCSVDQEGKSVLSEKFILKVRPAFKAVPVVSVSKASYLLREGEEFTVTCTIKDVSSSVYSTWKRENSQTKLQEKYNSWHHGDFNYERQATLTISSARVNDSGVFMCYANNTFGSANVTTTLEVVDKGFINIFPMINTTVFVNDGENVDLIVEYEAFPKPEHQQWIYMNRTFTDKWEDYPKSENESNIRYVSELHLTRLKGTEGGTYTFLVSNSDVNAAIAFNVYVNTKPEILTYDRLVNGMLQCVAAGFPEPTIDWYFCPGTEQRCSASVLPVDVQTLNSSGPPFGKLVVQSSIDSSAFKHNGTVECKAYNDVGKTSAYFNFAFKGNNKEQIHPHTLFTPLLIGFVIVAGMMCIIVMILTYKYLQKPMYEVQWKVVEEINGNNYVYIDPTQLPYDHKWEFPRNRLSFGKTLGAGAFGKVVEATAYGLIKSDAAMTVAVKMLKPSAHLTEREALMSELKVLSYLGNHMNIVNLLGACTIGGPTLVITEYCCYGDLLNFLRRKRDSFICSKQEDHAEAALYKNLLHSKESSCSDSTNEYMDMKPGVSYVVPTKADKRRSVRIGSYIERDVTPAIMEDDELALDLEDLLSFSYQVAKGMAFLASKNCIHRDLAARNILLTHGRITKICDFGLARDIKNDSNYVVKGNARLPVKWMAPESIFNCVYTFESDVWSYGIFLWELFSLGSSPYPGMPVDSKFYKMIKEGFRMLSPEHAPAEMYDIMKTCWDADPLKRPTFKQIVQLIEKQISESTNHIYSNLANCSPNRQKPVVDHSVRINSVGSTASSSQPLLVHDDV

| Structure (SMILES) | IC50 |
| --- | --- |
| Cc1c(F)cc(-c2noc([C@H]3C[C@@H]3F)n2)cc1NC(=O)c1cnc2ccccn12 (racemic) [Compound C002, N-(3-fluoro-5-(5-((1R,2S)-2-fluorocyclopropyl)-1,2,4-oxadiazol-3-yl)-2-methylphenyl)imidazo[1,2-a]pyridine-3-carboxamide] | 1000 to 20000 nM |
| Cc1c(F)cc(-c2noc([C@H]3C[C@H]3F)n2)cc1NC(=O)c1cnn2ccccc12 (racemic) [Compound C005] | 100 to 1000 nM |
| Cc1c(F)cc(-c2noc([C@H]3C[C@@H]3F)n2)cc1NC(=O)c1cnc2ccc(N3CCOCC3)cn12 (racemic) [Compound C008, N-(3-fluoro-5-(5-((1R,2S)-2-fluorocyclopropyl)-1,2,4-oxadiazol-3-yl)-2-methylphenyl)-6-morpholinoimidazo[1,2-a]pyridine-3-carboxamide] | 1000 to 20000 nM |
| Cc1c(F)cc(-c2noc([C@H]3C[C@@H]3F)n2)cc1NC(=O)c1cnc2cc(N3CCNCC3)ccn12 (racemic) [Compound C022, N-(3-fluoro-5-(5-((1R,2S)-2-fluorocyclopropyl)-1,2,4-oxadiazol-3-yl)-2-methylphenyl)-7-(piperazin-1-yl)imidazo[1,2-a]pyridine-3-carboxamide] | 1000 to 20000 nM |
| Cc1c(F)cc(-c2noc([C@H]3C[C@@H]3F)n2)cc1NC(=O)c1cnc2ccc(N3CCNCC3)cn12 (racemic) [Compound C026, N-(3-fluoro-5-(5-((1R,2S)-2-fluorocyclopropyl)-1,2,4-oxadiazol-3-yl)-2-methylphenyl)-6-(piperazin-1-yl)imidazo[1,2-a]pyridine-3-carboxamide] | 100 to 1000 nM |
| Cc1c(F)cc(-c2noc([C@H]3C[C@@H]3F)n2)cc1NC(=O)c1cnc2ccc(N3CCN(C)CC3)cn12 (racemic) [Compound C034, N-(3-fluoro-5-(5-((1R,2S)-2-fluorocyclopropyl)-1,2,4-oxadiazol-3-yl)-2-methylphenyl)-6-(4-methylpiperazin-1-yl)imidazo[1,2-a]pyridine-3-carboxamide] | 100 to 1000 nM |
| CC(=O)N1CCN(c2ccc3ncc(C(=O)Nc4cc(-c5noc([C@H]6C[C@@H]6F)n5)cc(F)c4C)n3c2)CC1 (racemic) [Compound C039, 6-(4-acetylpiperazin-1-yl)-N-(3-fluoro-5-(5-((1R,2S)-2-fluorocyclopropyl)-1,2,4-oxadiazol-3-yl)-2-methylphenyl)imidazo[1,2-a]pyridine-3-carboxamide] | ≤ 100 nM |
| Cc1c(F)cc(-c2noc(C3CC(F)(F)C3)n2)cc1NC(=O)c1cnn2ccccc12 [Compound C004, N-(5-(5-(3,3-difluorocyclobutyl)-1,2,4-oxadiazol-3-yl)-3-fluoro-2-methylphenyl)pyrazolo[1,5-a]pyridine-3-carboxamide] | 1000 to 20000 nM |
| Cc1c(F)cc(-c2noc(C3CC(F)(F)C3)n2)cc1NC(=O)c1cnc2ccc(N3CCOCC3)cn12 [Compound C007, N-(5-(5-(3,3-difluorocyclobutyl)-1,2,4-oxadiazol-3-yl)-3-fluoro-2-methylphenyl)-6-morpholinoimidazo[1,2-a]pyridine-3-carboxamide] | 100 to 1000 nM |
| COC(=O)N1CC(c2nc(-c3cc(F)c(C)c(NC(=O)c4cnc5ccc(N6CCOCC6)cn45)c3)no2)C1 [Compound C009, methyl 3-(3-(3-fluoro-4-methyl-5-(6-morpholinoimidazo[1,2-a]pyridine-3-carboxamido)phenyl)-1,2,4-oxadiazol-5-yl)azetidine-1-carboxylate] | 100 to 1000 nM |
| Cc1c(F)cc(-c2noc(C3CC(F)(F)C3)n2)cc1NC(=O)c1cnc2cc(N3CCNCC3)ccn12 [Compound C010, N-(5-(5-(3,3-difluorocyclobutyl)-1,2,4-oxadiazol-3-yl)-3-fluoro-2-methylphenyl)-7-(piperazin-1-yl)imidazo[1,2-a]pyridine-3-carboxamide] | 100 to 1000 nM |
| Cc1c(F)cc(-c2noc(C3CC(F)(F)C3)n2)cc1NC(=O)c1cnc2cc(N3CCN(C)CC3)ccn12 [Compound C011, N-(5-(5-(3,3-difluorocyclobutyl)-1,2,4-oxadiazol-3-yl)-3-fluoro-2-methylphenyl)-7-(4-methylpiperazin-1-yl)imidazo[1,2-a]pyridine-3-carboxamide] | 100 to 1000 nM |
| Cc1c(F)cc(-c2noc(C3CC(F)(F)C3)n2)cc1NC(=O)c1cnc2cc(N3CCOCC3)ccn12 [Compound C013, N-(5-(5-(3,3-difluorocyclobutyl)-1,2,4-oxadiazol-3-yl)-3-fluoro-2-methylphenyl)-7-morpholinoimidazo[1,2-a]pyridine-3-carboxamide] | 100 to 1000 nM |
| Cc1c(F)cc(-c2noc([C@H]3C[C@@H]3F)n2)cc1NC(=O)c1cnc2cc(N3CCOCC3)ccn12 [Compound C014, N-(3-fluoro-5-(5-((1R,2S)-2-fluorocyclopropyl)-1,2,4-oxadiazol-3-yl)-2-methylphenyl)-7-morpholinoimidazo[1,2-a]pyridine-3-carboxamide] | 100 to 1000 nM |
| COC(=O)N1CC(c2nc(-c3cc(F)c(C)c(NC(=O)c4cnc5cc(N6CCOCC6)ccn45)c3)no2)C1 [Compound C015, methyl 3-(3-(3-fluoro-4-methyl-5-(7-morpholinoimidazo[1,2-a]pyridine-3-carboxamido)phenyl)-1,2,4-oxadiazol-5-yl)azetidine-1-carboxylate] | ≤ 100 nM |
| CC(=O)N1CCN(c2ccn3c(C(=O)Nc4cc(-c5noc(C6CC(F)(F)C6)n5)cc(F)c4C)cnc3c2)CC1 [Compound C018, 7-(4-acetylpiperazin-1-yl)-N-(5-(5-(3,3-difluorocyclobutyl)-1,2,4-oxadiazol-3-yl)-3-fluoro-2-methylphenyl)imidazo[1,2-a]pyridine-3-carboxamide] | 100 to 1000 nM |
| COC(=O)N1CC(c2nc(-c3cc(F)c(C)c(NC(=O)c4cnc5ccc(N6CCNCC6)cn45)c3)no2)C1 [Compound C020, methyl 3-(3-(3-fluoro-4-methyl-5-(6-(piperazin-1-yl)imidazo[1,2-a]pyridine-3-carboxamido)phenyl)-1,2,4-oxadiazol-5-yl)azetidine-1-carboxylate] | 1000 to 20000 nM |
| Cc1c(F)cc(-c2noc(C3CC(F)(F)C3)n2)cc1NC(=O)c1cnc2ccc(N3CCNCC3)cn12 [Compound C025, N-(5-(5-(3,3-difluorocyclobutyl)-1,2,4-oxadiazol-3-yl)-3-fluoro-2-methylphenyl)-6-(piperazin-1-yl)imidazo[1,2-a]pyridine-3-carboxamide] | 100 to 1000 nM |

Next, values leading:

| IC50 | Structure (SMILES) |
| --- | --- |
| 1000 to 20000 nM | Cc1c(F)cc(-c2noc(C3CC(F)(F)C3)n2)cc1NC(=O)c1cnc2ccccn12 [Compound C001, N-(5-(5-(3,3-difluorocyclobutyl)-1,2,4-oxadiazol-3-yl)-3-fluoro-2-methylphenyl)imidazo[1,2-a]pyridine-3-carboxamide] |
| ≤ 100 nM | COC(=O)N1CC(c2nc(-c3cc(F)c(C)c(NC(=O)c4cnc5ccccn45)c3)no2)C1 [Compound C003, methyl 3-(3-(3-fluoro-5-(imidazo[1,2-a]pyridine-3-carboxamido)-4-methylphenyl)-1,2,4-oxadiazol-5-yl)azetidine-1-carboxylate] |
| 100 to 1000 nM | COC(=O)N1CC(c2nc(-c3cc(F)c(C)c(NC(=O)c4cnn5ccccc45)c3)no2)C1 [Compound C006, methyl 3-(3-(3-fluoro-4-methyl-5-(pyrazolo[1,5-a]pyridine-3-carboxamido)phenyl)-1,2,4-oxadiazol-5-yl)azetidine-1-carboxylate] |
| 100 to 1000 nM | COC(=O)N1CC(c2nc(-c3cc(F)c(C)c(NC(=O)c4cnc5ccc(Cl)cn45)c3)no2)C1 [Compound C012, methyl 3-(3-(3-(6-chloroimidazo[1,2-a]pyridine-3-carboxamido)-5-fluoro-4-methylphenyl)-1,2,4-oxadiazol-5-yl)azetidine-1-carboxylate] |
| 100 to 1000 nM | COC(=O)N1CC(c2nc(-c3cc(F)c(C)c(NC(=O)c4cnc5cc(Cl)ccn45)c3)no2)C1 [Compound C016, methyl 3-(3-(3-(7-chloroimidazo[1,2-a]pyridine-3-carboxamido)-5-fluoro-4-methylphenyl)-1,2,4-oxadiazol-5-yl)azetidine-1-carboxylate] |
| 100 to 1000 nM | COC(=O)N1CC(c2nc(-c3cc(F)c(C)c(NC(=O)c4cnc5cc(C)ccn45)c3)no2)C1 [Compound C017, methyl 3-(3-(3-fluoro-4-methyl-5-(7-methylimidazo[1,2-a]pyridine-3-carboxamido)phenyl)-1,2,4-oxadiazol-5-yl)azetidine-1-carboxylate] |
| 100 to 1000 nM | COC(=O)N1CC(c2nc(-c3cc(F)c(C)c(NC(=O)c4cnc5ccc(F)cn45)c3)no2)C1 [Compound C019, methyl 3-(3-(3-fluoro-5-(6-fluoroimidazo[1,2-a]pyridine-3-carboxamido)-4-methylphenyl)-1,2,4-oxadiazol-5-yl)azetidine-1-carboxylate] |
| 100 to 1000 nM | COC(=O)N1CC(c2nc(-c3cc(F)c(C)c(NC(=O)c4cnc5ccc(C)cn45)c3)no2)C1 [Compound C021, methyl 3-(3-(3-fluoro-4-methyl-5-(6-methylimidazo[1,2-a]pyridine-3-carboxamido)phenyl)-1,2,4-oxadiazol-5-yl)azetidine-1-carboxylate] |
| 100 to 1000 nM | CCOC(=O)N1CC(c2nc(-c3cc(F)c(C)c(NC(=O)c4cnc5ccccn45)c3)no2)C1 [Compound C023, ethyl 3-(3-(3-fluoro-5-(imidazo[1,2-a]pyridine-3-carboxamido)-4-methylphenyl)-1,2,4-oxadiazol-5-yl)azetidine-1-carboxylate] |
| 100 to 1000 nM | COC(=O)N1CC(c2nc(-c3cc(F)c(C)c(NC(=O)c4cnc5cc(F)ccn45)c3)no2)C1 [Compound C024, methyl 3-(3-(3-fluoro-5-(7-fluoroimidazo[1,2-a]pyridine-3-carboxamido)-4-methylphenyl)-1,2,4-oxadiazol-5-yl)azetidine-1-carboxylate] |

Same assay, conditions: comparison of prior art compounds (WO 2013/033167) with example 3 (C003)

| IC50 | Structure (SMILES) |
| --- | --- |
| 43 nM | COC(=O)N1CC(c2nc(-c3cc(F)c(C)c(NC(=O)c4cnc5ccccn45)c3)no2)C1 [Compound C003, methyl 3-(3-(3-fluoro-5-(imidazo[1,2-a]pyridine-3-carboxamido)-4-methylphenyl)-1,2,4-oxadiazol-5-yl)azetidine-1-carboxylate] |
